Structures can show the parent of a compound that is named as a salt.
Tests used:
[1] = biological target: PRMT5-MEP50 enzyme complex (Homo sapiens (Human), UniProt O14744); experiment: PRMT5 enzyme activity in vitro assay (methylation of histone H4R3, ELISA absorbance at 450 nm); type: biochemical; conditions: SAM, histone H4 peptide, room temperature 2 hours, 8 points from 10 μM to 0.128 nM
Method in brief: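 Human PRMT5-MEP50 was prepared at 5 μg/mL with SAM at 2 μM and reacted 2 h at room temperature on plate-coated histone H4 (1-20) peptide. An 8-point 1:5 compound series ran from 10 μM to 0.128 nM. H4R3 methylation was detected by antibody/HRP ELISA at 450 nm to give IC50.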

[2] = system: SDMA levels in the tumor (U87MG tumor cells implanted subcutaneously); experiment: Test for in vivo target inhibitory activity (SDMA levels in U87MG tumor); conditions: U87MG tumor in nude mice, oral 25 or 50 mg/kg 1-2 times daily for one week
Method: Test for in vivo target inhibitory activity
After U87MG tumor cells were implanted subcutaneously in nude mice, a PRMT5 inhibitor was administered orally (25 or 50 mg/kg) 1-2 times daily for one week, and then the degree to which SDMA levels in the tumor decreased was measured.
Reagents: Bradford's solution (Catalog No. 500-0006) was purchased from Bio-rad (USA). SDMA antibody (Catalog No. 13222s) was purchased from Cell Signaling Technology (USA). SmD3 antibody (Catalog No. ap12451a) was purchased from Abgent (USA), and secondary antibody (Catalog No. ab6721) and TMB substrate (Catalog No. ab210902) were purchased from Abcam (UK).
Experimental procedure: The tumor tissues transplanted into the mice were excised, the cells were lysed, and then quantified with Bradford's solution. 5-10 μg of protein per sample was diluted with carbonate-bicarbonate buffer and dispensed into a 96-well plate and reacted at room temperature for 2 hours. After washing with phosphate buffered saline (PBST) containing 0.05% Tween-20 3 times, 200 μL of PBST containing 5% bovine serum albumin (BSA-PBST) was added and reacted at room temperature for 2 hours. After washing with PBST 3 times, the SDMA antibody and the SmD3 antibody were diluted in BSA-PBST, and 100 μL of each was dispensed onto the plate and reacted at 4° C. overnight. After washing with PBST 3 times the next day, 100 μL of the secondary antibody diluted in BSA-PBST was added and reacted at room temperature for 1 hour. After washing with PBST 3 times, 100 μL of TMB substrate was added and reacted at room temperature for 10-20 minutes, and 100 μL of 1N sulfuric acid solution was added to terminate the reaction. Then, the absorbance at 450 nm was measured to calculate the degree of SDMA inhibition by the compound. (+++: more than 70%, ++: more than 30% and 70% or less, +: 30% or less)

PRMT5-MEP50 enzyme complex, sequence (O14744 2-637): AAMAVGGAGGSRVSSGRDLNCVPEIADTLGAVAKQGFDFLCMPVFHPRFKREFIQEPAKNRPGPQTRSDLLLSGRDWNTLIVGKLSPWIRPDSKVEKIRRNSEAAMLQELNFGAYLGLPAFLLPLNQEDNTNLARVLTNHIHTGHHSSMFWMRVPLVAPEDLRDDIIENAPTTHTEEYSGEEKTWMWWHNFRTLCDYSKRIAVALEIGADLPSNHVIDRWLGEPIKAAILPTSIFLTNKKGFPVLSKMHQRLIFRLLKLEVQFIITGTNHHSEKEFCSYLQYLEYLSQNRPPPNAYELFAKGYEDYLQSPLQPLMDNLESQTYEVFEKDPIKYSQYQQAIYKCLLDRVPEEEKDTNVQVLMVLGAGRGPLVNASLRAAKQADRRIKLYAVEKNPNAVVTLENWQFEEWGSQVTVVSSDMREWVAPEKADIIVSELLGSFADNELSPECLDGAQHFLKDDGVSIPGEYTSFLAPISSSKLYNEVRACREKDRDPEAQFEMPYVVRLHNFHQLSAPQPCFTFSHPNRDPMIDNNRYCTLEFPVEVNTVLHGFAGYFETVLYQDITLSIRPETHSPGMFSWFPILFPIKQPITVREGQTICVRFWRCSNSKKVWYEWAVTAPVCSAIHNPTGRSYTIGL
PRMT5-MEP50 enzyme complex, sequence (Q9BQA1 2-342 partner): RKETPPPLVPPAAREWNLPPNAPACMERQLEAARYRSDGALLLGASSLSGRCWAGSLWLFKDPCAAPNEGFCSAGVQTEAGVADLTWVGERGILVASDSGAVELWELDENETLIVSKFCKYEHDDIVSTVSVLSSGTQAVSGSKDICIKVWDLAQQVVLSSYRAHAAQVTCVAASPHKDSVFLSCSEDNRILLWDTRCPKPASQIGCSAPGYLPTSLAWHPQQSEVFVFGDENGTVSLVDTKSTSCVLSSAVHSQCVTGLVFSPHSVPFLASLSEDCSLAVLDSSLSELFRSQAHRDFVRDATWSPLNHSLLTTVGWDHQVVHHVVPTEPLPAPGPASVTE

SMILES	IC50 [1]	SDMA inhibition (%) [2]
O=C1c2ccc(OC3CCN(C4COC4)CC3)cc2OCCN1C[C@H](O)CN1CCc2ccccc2C1 [Example 92, 4-[(2R)-3-(3,4-dihydro-1H-isoquinolin-2-yl)-2-hydroxy-propyl]-8-[[1-(oxetan-3-yl)-4-piperidyl]oxy]-2,3-dihydro-1,4-benzoxazepin-5-one]	100 to 1000 nM	+++ (+++: more than 70%)
CN1CCN(C[C@H](O)CN2CCc3ccccc3C2)C(=O)c2ccc(Br)cc21 [Example 156, 8-bromo-4-[(2R)-3-(3,4-dihydro-1H-isoquinolin-2-yl)-2-hydroxy-propyl]-1-methyl-2,3-dihydro-1,4-benzodiazepin-5-one]	1 to 100 nM	++ (++: more than 30% and 70% or less)
CN1CCC(Oc2ccc3c(c2)OCCN(C[C@H](O)CN2CCc4ccccc4C2)C3=O)CC1 [Example 87, 4-[(2R)-3-(3,4-dihydro-1H-isoquinolin-2-yl)-2-hydroxy-propyl]-8-[(1-methyl-4-piperidyl)oxy]-2,3-dihydro-1,4-benzoxazepin-5-one]	1 to 100 nM	+++ (+++: more than 70%)
O=C1c2ccc(Br)cc2CCCN1C[C@H](O)CN1CCc2ccccc2C1 [Example 155, 7-bromo-2-[(2R)-3-(3,4-dihydro-1H-isoquinolin-2-yl)-2-hydroxy-propyl]-4,5-dihydro-3H-2-benzazepin-1-one]	1 to 100 nM	+ (+: 30% or less)
CN1CCC(Oc2ccc3c(c2)OC(C)(C)CN(C[C@H](O)CN2CCc4ccccc4C2)C3=O)CC1 [Example 112, 4-[(2R)-3-(3,4-dihydro-1H-isoquinolin-2-yl)-2-hydroxy-propyl]-2,2-dimethyl-8-[(1-methyl-4-piperidyl)oxy]-3H-1,4-benzoxazepin-5-one]	100 to 1000 nM	+++ (+++: more than 70%)
CCN1CCC(Oc2ccc3c(c2)OCCN(C[C@H](O)CN2CCc4ccccc4C2)C3=O)CC1 [Example 88, 4-[(2R)-3-(3,4-dihydro-1H-isoquinolin-2-yl)-2-hydroxy-propyl]-8-[(1-ethyl-4-piperidyl)oxy]-2,3-dihydro-1,4-benzoxazepin-5-one]	1 to 100 nM	+++ (+++: more than 70%)
O=C1c2ccc(OC3CN(C(=O)C4CC4)C3)cc2OCCN1C[C@H](O)CN1CCc2ccccc2C1 [Example 85, 8-[1-(cyclopropanecarbonyl)azetidin-3-yl]oxy-4-[(2R)-3-(3,4-dihydro-1H-isoquinolin-2-yl)-2-hydroxy-propyl]-2,3-dihydro-1,4-benzoxazepin-5-one]	1 to 100 nM	–
O=C1c2ccc(O[C@@H]3CCN(CCO)C[C@H]3F)cc2OCCN1C[C@H](O)CN1CCc2ccccc2C1 [Example 253, dihydrochloride]	100 to 1000 nM	–
CC1(C)CN(C[C@H](O)CN2CCc3ccccc3C2)C(=O)c2ccc(C(=O)N3CCn4cccc4C3)cc2O1 [Example 209, 4-[(2R)-3-(3,4-dihydro-1H-isoquinolin-2-yl)-2-hydroxy-propyl]-8-(3,4-dihydro-1H-pyrrolo[1,2-a]pyrazine-2-carbonyl)-2,2-dimethyl-3H-1,4-benzoxazepin-5-one]	100 to 1000 nM	–
CNCC#Cc1ccc2c(c1)OCCN(C[C@H](O)CN1CCc3ccccc3C1)C2=O [Example 229, 4-[(2R)-3-(3,4-dihydro-1H-isoquinolin-2-yl)-2-hydroxy-propyl]-8-[3-(methylamino)pro-1-pynyl]-2,3-dihydro-1,4-benzoxazepin-5-one]	100 to 1000 nM	–
O=C1c2ccccc2CCCN1CC(O)CN1CCc2ccccc2C1 (centres unmarked) [Example 148, 2-[3-(3,4-dihydro-1H-isoquinolin-2-yl)-2-hydroxy-propyl]-4,5-dihydro-3H-2-benzazepin-1-one]	1000 to 10000 nM	–
O=C1c2ccc(C3=CCNCC3)cc2OCCN1C[C@H](O)CN1CCc2ccccc2C1 [Example 15, 4-[(2R)-3-(3,4-dihydro-1H-isoquinolin-2-yl)-2-hydroxy-propyl]-8-(1,2,3,6-tetrahydropyridin-4-yl)-2,3-dihydro-1,4-benzoxazepin-5-one]	1 to 100 nM	–
CC1COCC(C)N1C(=O)c1ccc2c(c1)OC(C)(C)CN(C[C@H](O)CN1CCc3ccccc3C1)C2=O (stereo partly drawn) [Example 205, 4-[(2R)-3-(3,4-dihydro-1H-isoquinolin-2-yl)-2-hydroxy-propyl]-8-(3,5-dimethylmorpholin-4-carbonyl)-2,2-dimethyl-3H-1,4-benzoxazepin-5-one]	100 to 1000 nM	–
O=C1c2ccc(OCc3cc(Cl)nc(Cl)c3)cc2OCCN1C[C@H](O)CN1CCc2ccccc2C1 [Example 59, 8-[(2,6-dichloro-4-pyridyl)methoxy]-4-[(2R)-3-(3,4-dihydro-1H-isoquinolin-2-yl)-2-hydroxy-propyl]-2,3-dihydro-1,4-benzoxazepin-5-one]	100 to 1000 nM	–
CC(C)(C)OC(=O)N1CCC(Oc2ccc3c(c2)OCCN(C[C@H](O)CN2CCc4ccccc4C2)C3=O)CC1 [Example 77, tert-butyl 4-[[4-[(2R)-3-(3,4-dihydro-1H-isoquinolin-2-yl)-2-hydroxy-propyl]-5-oxo-2,3-dihydro-1,4-benzoxazepin-8-yl]oxy]piperidine-1-carboxylate]	1 to 100 nM	–
C[C@@H]1CN(C[C@H](O)CN2CCc3ccccc3C2)C(=O)c2ccc(OC3CC4CCC(C3)N4CCF)cc2O1 (some centres unmarked) [Example 242]	1 to 100 nM	–
O=C1c2ccc(CN3CCC(O)C3)cc2OCCN1C[C@H](O)CN1CCc2ccccc2C1 (stereo partly drawn) [Example 35, 4-[(2R)-3-(3,4-dihydro-1H-isoquinolin-2-yl)-2-hydroxy-propyl]-8-[(3-hydroxypyrrolidin-1-yl)methyl]-2,3-dihydro-1,4-benzoxazepin-5-one]	100 to 1000 nM	–
COc1ccc2c(c1)CCCN(CC(O)CN1CCc3ccccc3C1)C2=O (centres unmarked) [Example 2, 2-[3-(3,4-dihydro-1H-isoquinolin-2-yl)-2-hydroxy-propyl]-7-methoxy-4,5-dihydro-3H-2-benzazepin-1-one]	100 to 1000 nM	–
O=C1c2ccc(C3CCOCC3)cc2OCCN1C[C@H](O)CN1CCc2ccccc2C1 [Example 21, 4-[(2R)-3-(3,4-dihydro-1H-isoquinolin-2-yl)-2-hydroxy-propyl]-8-tetrahydropyran-4-yl-2,3-dihydro-1,4-benzoxazepin-5-one]	100 to 1000 nM	–
N#CN1CCC(Oc2ccc3c(c2)OCCN(C[C@H](O)CN2CCc4ccccc4C2)C3=O)CC1 [Example 166, 4-[[4-[(2R)-3-(3,4-dihydro-1H-isoquinolin-2-yl)-2-hydroxypropyl]-5-oxo-2,3-dihydro-1,4-benzoazepin-8-yl]oxy]piperidine-1-carbonitrile]	100 to 1000 nM	–
CN1CCC(COc2ccc3c(c2)N(C)CCN(C[C@H](O)CN2CCc4ccccc4C2)C3=O)C1 (stereo partly drawn) [Example 131, 4-[(2R)-3-(3,4-dihydro-1H-isoquinolin-2-yl)-2-hydroxy-propyl]-1-methyl-8-[(1-methylpyrrolidin-3-yl)methoxy]-2,3-dihydro-1,4-benzodiazepin-5-one]	100 to 1000 nM	–
C[C@H]1CN(C[C@H](O)CN2CCc3ccccc3C2)C(=O)c2ccc(OC3CCN(CCF)CC3)cc2O1 [Example 202, (2S)-4-[(2R)-3-(3,4-dihydro-1H-isoquinolin-2-yl)-2-hydroxy-propyl]-8-[1-(2-fluoroethyl)-4-piperidyl]oxy-2-methyl-2,3-dihydro-1,4-benzoxazepin-5-one]	1 to 100 nM	–
O=C(c1ccc2c(c1)OCCN(C[C@H](O)CN1CCc3ccccc3C1)C2=O)C1CC1 [Example 216, 8-(cyclopropanecarbonyl)-4-[(2R)-3-(3,4-dihydro-1H-isoquinolin-2-yl)-2-hydroxy-propyl]-2,3-dihydro-1,4-benzoxazepin-5-one]	1 to 100 nM	–
CN1CCN(C[C@H](O)CN2CCc3ccccc3C2)C(=O)c2ccc(OC3CCN(C4CCOC4)CC3)cc21 (stereo partly drawn) [Example 128, 4-[(2R)-3-(3,4-dihydro-1H-isoquinolin-2-yl)-2-hydroxy-propyl]-1-methyl-8-[(1-tetrahydrofuran-3-yl-4-piperidyl)oxy]-2,3-dihydro-1,4-benzodiazepin-5-one]	100 to 1000 nM	–
O=C(c1ccc2c(c1)OCCN(C[C@H](O)CN1CCc3ccccc3C1)C2=O)N1CCCC(F)C1 (stereo partly drawn) [Example 194, 4-[(2R)-3-(3,4-dihydro-1H-isoquinolin-2-yl)-2-hydroxy-propyl]-8-(3-fluoropiperidine-1-carbonyl)-2,3-dihydro-1,4-benzoxazepin-5-one]	100 to 1000 nM	–
CN1CCC(Oc2ccc3c(c2)OCCN(C[C@H](O)CN2CCc4ccccc4C2)C3=O)C1 (stereo partly drawn) [Example 98, 4-[(2R)-3-(3,4-dihydro-1H-isoquinolin-2-yl)-2-hydroxy-propyl]-8-(1-methylpyrrolidin-3-yl)oxy-2,3-dihydro-1,4-benzoxazepin-5-one]	100 to 1000 nM	–
